Type in all cases: biochemical
Experiment [1] concerns the target T1, DS-epi1 (DS-epimerase 1) (Homo sapiens, UniProt Q9UL01).
T1 construct: gene DSE; truncated form (amino acid 23–775-HIS)
In words: epimerase activity assay (3H release from [[…]-3H]dK4) with recombinant enzyme; dialysis irreversibility test; Lineweaver-Burk kinetics.

In experiment [2] the target is T2, HSepi (heparan sulfate glucuronyl C5-epimerase) (Homo sapiens, UniProt O94923).
T2 construct: gene GLCE; full-length, myc-HIS fusion
T2 sequence (O94923 1-617): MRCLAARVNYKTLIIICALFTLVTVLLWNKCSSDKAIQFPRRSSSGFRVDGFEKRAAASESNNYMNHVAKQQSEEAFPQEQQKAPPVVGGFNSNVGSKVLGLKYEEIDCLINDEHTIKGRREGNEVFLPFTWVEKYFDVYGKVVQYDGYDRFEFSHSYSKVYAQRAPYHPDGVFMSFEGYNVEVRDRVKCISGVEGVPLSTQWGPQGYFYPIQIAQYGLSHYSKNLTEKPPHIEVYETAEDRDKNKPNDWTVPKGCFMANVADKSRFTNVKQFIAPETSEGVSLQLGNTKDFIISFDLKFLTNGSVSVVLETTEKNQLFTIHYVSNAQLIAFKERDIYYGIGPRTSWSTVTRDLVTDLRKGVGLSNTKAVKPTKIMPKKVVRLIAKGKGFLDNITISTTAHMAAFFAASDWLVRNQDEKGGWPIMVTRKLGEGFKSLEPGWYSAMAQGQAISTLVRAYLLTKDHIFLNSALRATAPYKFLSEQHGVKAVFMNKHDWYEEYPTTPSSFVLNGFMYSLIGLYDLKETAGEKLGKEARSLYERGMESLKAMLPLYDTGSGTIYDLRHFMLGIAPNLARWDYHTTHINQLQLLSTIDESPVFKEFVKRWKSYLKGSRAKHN
Briefly: epimerase activity assay (3H release from [[…]-3H]-N-sulfated K5 polysaccharide) with recombinant enzyme.

Experiment [3] concerns the target T3, D4ST1 (DS 4-O-sulfotransferase 1) (Homo sapiens, UniProt Q8NCH0).
T3 construct: gene CHST14; D4ST1-HIS (amino acid 61–376)
T3 sequence (Q8NCH0 61-376): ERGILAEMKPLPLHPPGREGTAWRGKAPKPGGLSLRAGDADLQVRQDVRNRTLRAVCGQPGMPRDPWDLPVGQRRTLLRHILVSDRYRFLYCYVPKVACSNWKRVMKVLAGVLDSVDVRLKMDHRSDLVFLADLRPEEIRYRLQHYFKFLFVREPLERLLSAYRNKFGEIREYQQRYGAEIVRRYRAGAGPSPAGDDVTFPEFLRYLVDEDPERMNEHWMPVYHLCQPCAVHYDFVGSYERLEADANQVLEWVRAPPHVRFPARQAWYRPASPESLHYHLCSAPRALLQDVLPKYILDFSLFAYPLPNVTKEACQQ
In words: sulfotransferase activity assay ([…]PAPS incorporation) with recombinant enzyme.

IC50 data for one compound are collected here from PMC8600295, “Inhibition of iduronic acid biosynthesis by ebselen reduces glycosaminoglycan accumulation in mucopolysaccharidosis type I fibroblasts” (Glycobiology, 2021).

Take `O=c1c2ccccc2[se]n1-c1ccccc1` [ebselen, 2-phenyl-1,2-benzoisoselenazol-3(2H)-one]: the IC50 is 7000 nM in experiment [1], 800 nM in experiment [2] and 1500 nM in experiment [3].

A word on the IC50: it is the concentration at which inhibition is half-maximal.
